In brackets after ≈: the same amount, converted by molar mass. Read-outs that look alike come from different tables or passages of the source. Marks after values point to notes of the source that are not given here.
Legend:
Streptococcus pyogenes [1] = assay: MIC-90 of penicillin VK for Streptococcus pyogenes; type: cell-based; conditions: where study did not report MIC, assumed equal to MIC determined in Applicants' Phase III trial
From the text: The information in Table 1 was collected from several studies published in the literature. Information such as drug, regimen, Days Tx and Eradication can be taken directly from the literature articles. Information such as the MIC will often have been determined as part of the study and may be reported in the article, but in many cases it may not have been determined or reported.

Streptococcus pyogenes [2] = conditions: Omnicef label, Tack et al, AAC 1998; cited from earlier work
Streptococcus pyogenes [3] = assay: Daily T>MIC and Total T>MIC calculated from pharmacokinetic model (WinNonlin) plasma profiles
Method: The Daily T>MIC must also be calculated for each different regimen, and at the relevant MIC. This information was not presented in any of the articles and so it was calculated by Applicants. The Daily T>MIC is calculated for each regimen by creating a plasma profile from pharmacokinetic data published in the literature. Prior to creating the plasma profile a pharmacokinetic model is developed from plasma profiles from one or more doses reported in the literature. […] The models are industry standard compartmental models, generated with WinNonlin, a common program used in the pharmaceutical industry for pharmacokinetic analysis and modeling. Once the Daily T>MIC for each regimen has been calculated, the Total T>MIC is calculated by multiplying the Daily T>MIC by the Duration of Therapy (Days Tx in the table). Thus a composite parameter, Total T>MIC, is constructed that includes both factors relevant to eradication of Streptococcus pyogenes by a given regimen. The equation can then be used to determine the Total T>MIC required to achieve eradication rates ≧85% (or any other desired eradication rate).

Streptococcus pyogenes [4] = conditions: cited from earlier work

Question: Which MIC90 (Streptococcus pyogenes [1]) does the source give for CC1(C)S[C@@H]2[C@H](NC(=O)COc3ccccc3)C(=O)N2[C@H]1C(=O)O [Pen VK, penicillin VK] here?
Answer: 0.015 µg/mL (≈ 0.0428 µM)

Question: And the MIC-90 (Streptococcus pyogenes [2])?
Answer: 0.03* μg/mL

Question: And the “Daily T > MIC” value (Streptococcus pyogenes [3]; 250 QID, MIC-90 0.015)?
Answer: 55.30%

Question: And the “Daily T > MIC” value (Streptococcus pyogenes [3]; 250 QID, MIC-90 0.03)?
Answer: 46.40%

Question: And the “Daily T > MIC” value (Streptococcus pyogenes [3]; 250 TID, MIC-90 0.015)?
Answer: 39.29%

Question: What about the “Daily T > MIC” value (Streptococcus pyogenes [3]; 500 TID, MIC-90 0.015) of the same compound?
Answer: 48.10%

Question: And the “Daily T > MIC” value (Streptococcus pyogenes [3]; 600 TID, MIC-90 0.015)?
Answer: 49.80%

Question: And the “Daily T > MIC” value (Streptococcus pyogenes [3]; 750 QD, MIC-90 0.015)?
Answer: 17.30%

Question: And the “Daily T > MIC” value (Streptococcus pyogenes [3]; 800 BID, MIC-90 0.015)?
Answer: 35.00%

Question: What about the “% Erad” value (Streptococcus pyogenes [4]; 250 QID, Days Tx 10, MIC-90 0.03, Omnicef label, Tack et al, AAC 1998) of the same compound?
Answer: 82%

Question: What about the “% Erad” value (Streptococcus pyogenes [4]; 250 QID, Days Tx 10, McCarty 1993) of the same compound?
Answer: 100%

Question: And the “% Erad” value (Streptococcus pyogenes [4]; 250 QID, Days Tx 10, Mullen 992)?
Answer: 85.5%

Question: What about the “% Erad” value (Streptococcus pyogenes [4]; 250 TID, Days Tx 5, Gerber et al, AJDC 1987) of the same compound?
Answer: 92%

Question: What about the “% Erad” value (Streptococcus pyogenes [4]; 250 TID, Days Tx 10, Gerber et al, AJDC 1987) of the same compound?
Answer: 96%

Question: What about the “% Erad” value (Streptococcus pyogenes [4]; 500 TID, Days Tx 0 (spontaneous eradication), Zwart et al. BMJ 2000) of the same compound?
Answer: 7%

Question: What about the “% Erad” value (Streptococcus pyogenes [4]; 500 TID, Days Tx 3, Zwart et al, BMJ 2000) of the same compound?
Answer: 41%

Question: And the “% Erad” value (Streptococcus pyogenes [4]; 500 TID, Days Tx 7, Zwart et al, BMJ 2000)?
Answer: 72%

Question: What about the “% Erad” value (Streptococcus pyogenes [4]; 500 TID, Days Tx 10, Ketek SBA, Norrby et al, Scand J Infect Dis 2001) of the same compound?
Answer: 89%

Question: And the “% Erad” value (Streptococcus pyogenes [4]; 600 TID, Days Tx 10, Carbon et al, J Antimicrob Chemother 1995)?
Answer: 86%

Question: What about the “% Erad” value (Streptococcus pyogenes [4]; 750 QD, Days Tx 10, Gerber et al, AJDC 1989) of the same compound?
Answer: 82%

Question: And the “% Erad” value (Streptococcus pyogenes [4]; 800 BID, Days Tx 5, Stromberg et al, Scand J Infect Dis 1988)?
Answer: 73%

Question: What about the “% Erad” value (Streptococcus pyogenes [4]; 800 BID, Days Tx 10, Stromberg et al, Scand J Infect Dis 1988) of the same compound?
Answer: 94%
